Experimental data from patent US10004732B2 (Novartis AG, priority 2014, dated 2018).
Where a name gives a salt, the structure may show the parent alone.

Tests used:
PI 3-kinase alpha [1] = target: T1, PI 3-kinase alpha (Homo sapiens, UniProt P42336); assay: Kinase Glo Luminescent Kinase Assay (Kglo), assay A; type: biochemical; conditions: read-out: Assay A PI3Kα IC50
Target sequence in this assay (P42336 whole entry): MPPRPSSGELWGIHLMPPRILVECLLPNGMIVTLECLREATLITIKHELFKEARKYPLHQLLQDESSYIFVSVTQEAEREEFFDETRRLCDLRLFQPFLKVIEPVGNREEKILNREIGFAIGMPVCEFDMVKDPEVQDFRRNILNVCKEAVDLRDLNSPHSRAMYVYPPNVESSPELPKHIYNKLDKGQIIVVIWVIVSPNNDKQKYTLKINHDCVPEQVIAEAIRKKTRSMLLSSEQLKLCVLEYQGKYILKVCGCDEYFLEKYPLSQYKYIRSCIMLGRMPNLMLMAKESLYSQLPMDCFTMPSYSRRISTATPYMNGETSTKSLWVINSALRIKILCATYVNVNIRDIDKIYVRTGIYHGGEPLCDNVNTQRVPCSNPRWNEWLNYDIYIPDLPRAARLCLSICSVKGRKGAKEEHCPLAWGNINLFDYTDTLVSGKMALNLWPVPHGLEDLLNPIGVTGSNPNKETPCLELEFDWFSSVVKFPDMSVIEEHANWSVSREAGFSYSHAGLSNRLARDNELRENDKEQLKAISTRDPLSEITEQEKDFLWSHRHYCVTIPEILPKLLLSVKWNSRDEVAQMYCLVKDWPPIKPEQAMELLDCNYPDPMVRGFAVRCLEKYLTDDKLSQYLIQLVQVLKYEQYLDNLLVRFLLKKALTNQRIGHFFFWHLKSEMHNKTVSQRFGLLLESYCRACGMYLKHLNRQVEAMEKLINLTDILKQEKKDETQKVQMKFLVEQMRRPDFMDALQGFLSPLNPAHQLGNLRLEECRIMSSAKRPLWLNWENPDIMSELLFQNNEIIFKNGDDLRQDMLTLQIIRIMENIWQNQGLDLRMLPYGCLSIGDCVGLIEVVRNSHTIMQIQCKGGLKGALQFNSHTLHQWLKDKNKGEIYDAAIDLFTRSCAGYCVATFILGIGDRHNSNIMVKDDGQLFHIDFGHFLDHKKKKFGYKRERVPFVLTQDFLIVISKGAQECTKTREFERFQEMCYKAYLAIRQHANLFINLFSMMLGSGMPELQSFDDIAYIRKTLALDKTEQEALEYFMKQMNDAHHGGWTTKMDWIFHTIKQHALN

PI 3-kinase beta [2] = target: T2, PI 3-kinase beta (Homo sapiens, UniProt P42338); assay: Kinase Glo Luminescent Kinase Assay (Kglo), assay B; type: biochemical; conditions: read-out: Assay B PI3Kβ IC50
Method: Kinase Glo Luminescent Kinase Assay (Kglo) for Pb 3-Kinase Alpha (A), Pb 3-Kinase Beta (B), Vps34 (C), Pb 4-Kinase Beta (D)
The Kinase Glo Luminescent Kinase Assay (Promega, Madison/Wis., USA) is a homogeneous HTS method of measuring kinase activity by quantifying the amount of ATP remaining in solution following a kinase reaction.
L-α-phosphatidylinositol (PI), provided as 10 mg/ml solution in methanol, was transferred into a glass tube and dried under a nitrogen beam. It was then resuspended in 3% OctylGlucoside (1-0-n-octyl-beta-D-glucopyranoside) by vortexing and stored at 4° C. 5 μL of a mix of PI/OctylGlucoside with the PI 3-kinase alpha and PI 3-kinase beta subtypes, or Vps34 or PI 4-kinase beta were added. Kinase reactions were started by the addition of 5 μl of an ATP-mix containing in a final volume 10 μL 10 mM TRIS-HCl pH 7.5, 3 mM MgCl2, 50 mM NaCl, 0.05% CHAPS, 1 mM DTT and 1 μM ATP at room temperature.
All fits were performed with the program XLfit4 (ID Business Solutions, Guildford, UK).

Vps34 = Vps34 (Homo sapiens, UniProt Q8NEB9); assay: Kinase Glo Luminescent Kinase Assay (Kglo), assay C; type: biochemical; conditions: read-out: Assay C VPS34 IC50
PI 4-kinase beta = PI 4-kinase beta (Homo sapiens, UniProt Q9UBF8); assay: Kinase Glo Luminescent Kinase Assay (Kglo), assay D; type: biochemical; conditions: read-out: Assay D PI4Kβ IC50
PI 3-kinase gamma [3] = target: T3, PI 3-kinase gamma (Homo sapiens, UniProt P48736); assay: TR-FRET Adapta assay, assay E; type: biochemical; conditions: read-out: Assay E PI3Kγ IC50
mTOR = mTOR (Homo sapiens, UniProt P42345); assay: Lanthascreen kinase binding assay, assay G; conditions: read-out: Assay G mTOR IC50
Method: Lanthascreen™ Kinase Binding Assay for mTOR (G)
Binding of an inhibitor to the kinase competes for binding with the tracer, resulting in a loss of FRET.
50 nL of compound dilutions were dispensed onto white 384-well small volume polystyrene plate.

PI 3-kinase alpha [4] = target: T1, PI 3-kinase alpha; assay: Cellular assay H1, p-Akt (S473) in Rat-1 cells, Surefire format; type: cell-based; conditions: non-asterisked data: version H1 (Surefire format), Rat-1 cells; read-out: Assay H PI3Kα IC50
Target sequence in this assay (P42336 whole entry): as above
Target sequence in this assay (Q63787 whole entry partner): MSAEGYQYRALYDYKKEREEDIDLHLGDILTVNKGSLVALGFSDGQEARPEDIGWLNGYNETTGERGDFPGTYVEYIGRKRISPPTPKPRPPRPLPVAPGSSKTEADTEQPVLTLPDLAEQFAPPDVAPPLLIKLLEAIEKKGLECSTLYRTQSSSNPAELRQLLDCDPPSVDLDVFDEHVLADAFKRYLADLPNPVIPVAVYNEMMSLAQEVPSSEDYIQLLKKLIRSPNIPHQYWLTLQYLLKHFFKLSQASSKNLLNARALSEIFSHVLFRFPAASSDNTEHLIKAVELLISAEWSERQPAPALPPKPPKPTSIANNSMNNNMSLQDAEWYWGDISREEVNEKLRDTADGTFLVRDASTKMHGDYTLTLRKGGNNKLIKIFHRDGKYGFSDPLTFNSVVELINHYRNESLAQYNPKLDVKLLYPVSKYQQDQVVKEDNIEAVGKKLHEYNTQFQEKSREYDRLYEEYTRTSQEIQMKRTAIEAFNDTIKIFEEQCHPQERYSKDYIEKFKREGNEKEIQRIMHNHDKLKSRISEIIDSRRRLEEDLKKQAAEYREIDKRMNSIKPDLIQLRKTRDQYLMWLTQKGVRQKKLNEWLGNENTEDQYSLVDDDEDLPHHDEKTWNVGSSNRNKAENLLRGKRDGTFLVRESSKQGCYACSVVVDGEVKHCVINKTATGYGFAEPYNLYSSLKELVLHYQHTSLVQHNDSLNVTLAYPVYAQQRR

PI 3-kinase beta [5] = target: T2, PI 3-kinase beta; assay: Cellular assay I1, p-Akt (S473) in Rat-1 cells, Surefire format; type: cell-based; conditions: non-asterisked data: version I1 (Surefire format), Rat-1 cells; read-out: Assay I PI3Kβ IC50
PI 3-kinase delta [6] = target: T4, PI 3-kinase delta (Homo sapiens, UniProt O00329); assay: Cellular assay J1, p-Akt (S473) in Rat-1 cells, Surefire format; type: cell-based; conditions: non-asterisked data: version J1 (Surefire format), Rat-1 cells; read-out: Assay J PI3Kδ IC50
PI 3-kinase gamma [7] = target: T3, PI 3-kinase gamma; assay: Cellular U937 AKT assay K1 (MSD); type: cell-based; conditions: U937 cells, K1 format; read-out: Assay K1 PI3Kγ IC50
PI 3-kinase gamma [8] = target: T3, PI 3-kinase gamma; assay: Cellular U937 AKT assay K2 (HTRF); type: cell-based; conditions: U937 cells, K2 format; read-out: Assay K2 PI3Kγ IC50
[9] = tested on: IL-8-induced neutrophil shape change in human whole blood; assay: Whole blood neutrophil shape change assay (L); type: cell-based; conditions: Homo sapiens, Neutrophil, IL-8, human whole blood, read-out: Assay L WBSC IC50
PI 3-kinase delta [10] = target: T4, PI 3-kinase delta; assay: TR-FRET Adapta assay, assay F; conditions: read-out: Assay F PI3Kδ IC50
[11] = Microsomal clearance assay (M); conditions: intrinsic clearance in rat liver microsomes
Method: The experiments were performed in 96-well glass plates at 37° C. on an automated Tecan EVO platform. Test compounds at a concentration of 10 mM in pure DMSO were diluted 1:1000 in water to 10 μM. […] Reactions were initiated by the addition of 150 μL of a cofactor solution containing 2 mM NADPH.

T3 sequence (P48736 whole entry): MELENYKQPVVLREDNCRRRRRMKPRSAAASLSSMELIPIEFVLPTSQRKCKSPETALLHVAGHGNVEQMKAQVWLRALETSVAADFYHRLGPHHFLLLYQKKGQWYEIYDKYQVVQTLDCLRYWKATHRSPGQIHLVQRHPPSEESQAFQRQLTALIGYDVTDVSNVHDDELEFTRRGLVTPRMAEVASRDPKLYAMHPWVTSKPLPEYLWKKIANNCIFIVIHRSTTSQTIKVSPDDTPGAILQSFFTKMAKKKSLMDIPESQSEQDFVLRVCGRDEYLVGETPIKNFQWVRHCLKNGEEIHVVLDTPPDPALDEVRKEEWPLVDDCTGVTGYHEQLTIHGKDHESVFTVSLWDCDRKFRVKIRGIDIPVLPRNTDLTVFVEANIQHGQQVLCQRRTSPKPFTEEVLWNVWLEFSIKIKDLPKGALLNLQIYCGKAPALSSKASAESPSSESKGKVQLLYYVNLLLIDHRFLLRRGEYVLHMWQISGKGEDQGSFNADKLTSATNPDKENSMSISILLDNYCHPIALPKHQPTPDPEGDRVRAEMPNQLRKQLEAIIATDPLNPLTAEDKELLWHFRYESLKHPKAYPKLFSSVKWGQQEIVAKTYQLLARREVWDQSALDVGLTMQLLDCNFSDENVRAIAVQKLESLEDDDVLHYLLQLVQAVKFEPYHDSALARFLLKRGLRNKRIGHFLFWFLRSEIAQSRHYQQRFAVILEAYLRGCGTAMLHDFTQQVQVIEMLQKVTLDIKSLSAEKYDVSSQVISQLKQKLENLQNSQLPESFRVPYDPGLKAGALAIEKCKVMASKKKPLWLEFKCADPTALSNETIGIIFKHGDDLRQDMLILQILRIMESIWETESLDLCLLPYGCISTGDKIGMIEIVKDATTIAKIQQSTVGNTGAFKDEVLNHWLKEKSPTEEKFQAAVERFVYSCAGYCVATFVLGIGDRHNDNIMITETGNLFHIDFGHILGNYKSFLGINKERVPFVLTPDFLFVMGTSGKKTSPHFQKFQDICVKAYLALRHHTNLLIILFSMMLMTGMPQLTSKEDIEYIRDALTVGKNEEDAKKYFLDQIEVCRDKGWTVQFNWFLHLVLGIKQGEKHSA
Sequence of PI 4-kinase beta (Q9UBF8 whole entry): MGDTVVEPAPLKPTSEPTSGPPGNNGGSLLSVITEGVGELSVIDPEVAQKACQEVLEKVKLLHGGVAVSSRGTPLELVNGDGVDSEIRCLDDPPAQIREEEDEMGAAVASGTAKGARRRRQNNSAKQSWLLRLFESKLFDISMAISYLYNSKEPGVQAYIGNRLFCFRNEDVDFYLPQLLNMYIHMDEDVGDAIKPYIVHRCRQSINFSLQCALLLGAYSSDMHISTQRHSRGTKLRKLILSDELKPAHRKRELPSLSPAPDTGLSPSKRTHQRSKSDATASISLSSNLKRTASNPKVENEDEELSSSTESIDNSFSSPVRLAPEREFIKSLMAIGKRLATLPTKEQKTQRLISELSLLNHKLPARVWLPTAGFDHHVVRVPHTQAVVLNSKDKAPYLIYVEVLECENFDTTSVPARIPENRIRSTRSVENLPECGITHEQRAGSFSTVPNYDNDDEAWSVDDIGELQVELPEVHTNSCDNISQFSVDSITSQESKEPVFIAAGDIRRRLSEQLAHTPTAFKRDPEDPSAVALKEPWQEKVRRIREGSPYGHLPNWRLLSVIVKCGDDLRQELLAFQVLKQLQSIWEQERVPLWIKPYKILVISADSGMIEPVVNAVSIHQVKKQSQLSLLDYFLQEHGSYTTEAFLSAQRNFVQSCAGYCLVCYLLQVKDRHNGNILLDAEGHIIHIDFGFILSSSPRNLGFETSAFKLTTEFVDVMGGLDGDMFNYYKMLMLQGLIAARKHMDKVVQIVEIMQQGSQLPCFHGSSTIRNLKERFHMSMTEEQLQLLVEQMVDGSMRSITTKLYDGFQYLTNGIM
Sequence of Vps34 (Q8NEB9 whole entry, species assumed): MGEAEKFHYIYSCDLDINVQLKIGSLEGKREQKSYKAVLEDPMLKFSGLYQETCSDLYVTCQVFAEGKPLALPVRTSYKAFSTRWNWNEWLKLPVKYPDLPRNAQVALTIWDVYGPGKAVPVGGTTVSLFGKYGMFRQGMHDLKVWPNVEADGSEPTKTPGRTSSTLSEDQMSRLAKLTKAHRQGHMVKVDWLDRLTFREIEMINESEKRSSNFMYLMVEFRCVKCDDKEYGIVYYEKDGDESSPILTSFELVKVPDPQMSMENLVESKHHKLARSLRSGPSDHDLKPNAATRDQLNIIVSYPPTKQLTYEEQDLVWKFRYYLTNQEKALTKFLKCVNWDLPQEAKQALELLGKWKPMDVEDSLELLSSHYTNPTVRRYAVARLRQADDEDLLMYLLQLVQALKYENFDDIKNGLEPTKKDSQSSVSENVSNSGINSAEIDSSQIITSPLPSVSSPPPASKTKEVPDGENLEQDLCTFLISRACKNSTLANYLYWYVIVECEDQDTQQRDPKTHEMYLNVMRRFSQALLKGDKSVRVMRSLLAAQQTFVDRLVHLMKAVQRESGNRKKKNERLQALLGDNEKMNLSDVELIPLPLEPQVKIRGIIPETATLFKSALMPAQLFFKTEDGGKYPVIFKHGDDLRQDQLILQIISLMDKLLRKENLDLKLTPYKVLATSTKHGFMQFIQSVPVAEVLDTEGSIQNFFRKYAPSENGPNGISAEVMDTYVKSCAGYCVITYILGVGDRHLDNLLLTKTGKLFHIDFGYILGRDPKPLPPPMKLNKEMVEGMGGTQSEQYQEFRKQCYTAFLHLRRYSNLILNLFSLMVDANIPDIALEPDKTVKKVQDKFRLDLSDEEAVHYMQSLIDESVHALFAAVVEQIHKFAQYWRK

SMILES	IC50 (PI 3-kinase alpha [1])	IC50 (PI 3-kinase beta [2])	IC50 (Vps34)	IC50 (PI 4-kinase beta)	IC50 (PI 3-kinase gamma [3])	IC50 (mTOR)	IC50 (PI 3-kinase alpha [4])	IC50 (PI 3-kinase beta [5])	IC50 (PI 3-kinase delta [6])	IC50 (PI 3-kinase gamma [7])	IC50 (PI 3-kinase gamma [8])	IC50 [9]	IC50 (PI 3-kinase delta [10])	Assay M RLM CI(int) [11]
CCONS(=O)(=O)c1ccc(C)c(-c2cnc(N)c(-n3cncn3)n2)c1 [Example 112, 3-(5-Amino-6-(1H-1,2,4-triazol-1-yl)pyrazin-2-yl)-N-ethoxy-4-methylbenzenesulfonamide]	860 nM	3300 nM	> 10000 nM	3150 nM	19 nM	6300 nM	790 nM	1140 nM	310 nM	95 nM	172 nM	586 nM	500 nM	62 µL/min/mg
Cc1ccc(S(=O)(=O)N[C@H]2CC[C@H](O)CC2)cc1-c1cnc(N)c(-c2cccnc2)n1 [Example 22, Trans-3-(5-Amino-6-pyridin-3-yl-pyrazin-2-yl)-N-(4-hydroxy-cyclohexyl)-4-methyl benzenesulfonamide]	760 nM	5710 nM	> 9100 nM	7080 nM	44 nM	8020 nM	6670 nM	> 10000 nM	4690 nM	164 nM	100 nM	256 nM	420 nM	47 µL/min/mg
Cc1cc(F)c(S(=O)(=O)NCC(C)(C)O)cc1-c1cnc(N)c(-n2cncn2)n1 [Example 122, 5-(5-Amino-6-(1H-1,2,4-triazol-1-yl)pyrazin-2-yl)-2-fluoro-N-(2-hydroxy-2-methylpropyl)-4-methylbenzenesulfonamide]	490 nM	2200 nM	> 10000 nM	1900 nM	85 nM	6600 nM	2280 nM	1490 nM	1190 nM	151 nM	296 nM	988 nM	1600 nM	26 µL/min/mg
Cc1ccc(S(=O)(=O)NCC2(CO)COC2)cc1-c1cnc(N)c(-c2cn(C)nc2C)n1 [Example 128, 3-(5-Amino-6-(1,3-dimethyl-1H-pyrazol-4-yl)pyrazin-2-yl)-N-((3-(hydroxymethyl)oxetan-3-yl)methyl)-4-methylbenzenesulfonamide]	150 nM	500 nM	> 10000 nM	6800 nM	14 nM	–	> 10000 nM	9910 nM	> 10000 nM	209 nM	201 nM	2990 nM	100 nM	22 µL/min/mg
Cc1ncc(-c2nc(-c3cc(S(=O)(=O)NCCCO)c(F)cc3C)cnc2N)s1 [Example 113, 5-(5-Amino-6-(2-methylthiazol-5-yl)pyrazin-2-yl)-2-fluoro-N-(3-hydroxypropyl)-4-methylbenzenesulfonamide]	50 nM	440 nM	470 nM	1480 nM	8 nM	3450 nM	1080 nM	3570 nM	1080 nM	55 nM	24 nM	143 nM	320 nM	39 µL/min/mg
Cc1ccc(S(=O)(=O)NC2CC2)cc1-c1cnc(N)c(-n2cncn2)n1 [Example 127.53]	430 nM	1400 nM	> 10000 nM	1700 nM	25 nM	3900 nM	650 nM	> 3000 nM	6510 nM	172 nM	198 nM	1860 nM	1400 nM	129 µL/min/mg
Cc1ncc(-c2nc(-c3cc(S(=O)(=O)NCC4(CO)COC4)ccc3C)cnc2N)s1 [Example 44, 3-(5-Amino-6-(2-methylthiazol-5-yl)pyrazin-2-yl)-N-((3-(hydroxymethyl)oxetan-3-yl)methyl)-4-methylbenzenesulfonamide]	60 nM	240 nM	2300 nM	1600 nM	5 nM	–	7040 nM	> 10000 nM	> 10000 nM	22 nM	59 nM	413 nM	150 nM	37 µL/min/mg
Cc1ccc(S(=O)(=O)NCC(C)(C)O)cc1-c1cnc(N)c(-n2cnc(CN(C)C)n2)n1 [Example 117, 3-(5-Amino-6-(3-((dimethylamino)methyl)-1H-1,2,4-triazol-1-yl)pyrazin-2-yl)-N-(2-hydroxy-2-methylpropyl)-4-methylbenzenesulfonamide hydrochloride salt]	900 nM	> 10000 nM	> 10000 nM	> 10000 nM	36 nM	> 10000 nM	> 10000 nM	> 3000 nM	> 10000 nM	577 nM	945 nM	727 nM	–	85 µL/min/mg
Cc1ccc(S(=O)(=O)NCCC(C)(C)O)cc1-c1cnc(N)c(-c2cscn2)n1 [Example 108, 3-(5-Amino-6-(thiazol-4-yl)pyrazin-2-yl)-N-(3-hydroxy-3-methylbutyl)-4-methylbenzenesulfonamide]	310 nM	260 nM	–	640 nM	38 nM	> 10000 nM	5780 nM	3010 nM	410 nM	58 nM	163 nM	5560 nM	330 nM	112 µL/min/mg
Cc1ccc(S(=O)(=O)NOC(C)(C)C)cc1-c1cnc(N)c(-n2cncn2)n1 [Example 112.1, 3-(5-Amino-6-(1H-1,2,4-triazol-1-yl)pyrazin-2-yl)-N-(tert-butoxy)-4-methylbenzenesulfonamide]	290 nM	1700 nM	> 10000 nM	1800 nM	33 nM	6000 nM	800 nM	1470 nM	380 nM	91 nM	63 nM	1330 nM	210 nM	–
Cc1ccc(S(=O)(=O)NCC2CNCCO2)cc1-c1cnc(N)c(-c2cn(C)nc2C)n1 (stereo not shown) [Example 128.8, 3-(5-amino-6-(1,3-dimethyl-1H-pyrazol-4-yl)pyrazin-2-yl)-4-methyl-N-(morpholin-2-ylmethyl)benzenesulfonamide]	590 nM	1800 nM	> 10000 nM	> 10000 nM	21 nM	–	> 3000 nM	> 10000 nM	> 10000 nM	751 nM	421 nM	1670 nM	100 nM	<3.4 µL/min/mg
Cc1ccc(S(=O)(=O)NCCN)cc1-c1cnc(N)c(-n2cncn2)n1 [Example 33, N-(2-Amino-ethyl)-3-(5-amino-6-[1,2,4]triazol-1-yl-pyrazin-2-yl)-4-methyl-benzenesulfonamide trifluoroacetic acid salt]	210 nM	380 nM	> 10000 nM	910 nM	47 nM	1500 nM	–	–	–	1980 nM	622 nM	742 nM	780 nM	12 µL/min/mg
Cc1ccc(S(=O)(=O)NC[C@H]2COCCN2)cc1-c1cnc(N)c(-c2cn(C)nc2C)n1 [Example 128.7, (S)-3-(5-Amino-6-(1,3-dimethyl-1H-pyrazol-4-yl)pyrazin-2-yl)-4-methyl-N-(morpholin-3-ylmethyl)benzenesulfonamide]	220 nM	1900 nM	> 10000 nM	> 10000 nM	79 nM	–	> 10000 nM	> 10000 nM	> 10000 nM	249 nM	117 nM	826 nM	690 nM	20 µL/min/mg
